According to patent US6699863B1, “Kinase inhibitors for the treatment of disease” (Allergan, Inc., priority 2002, dated 2004):

Key:
[1] = system: VEGF induced increases in intracellular calcium levels in HUVEC (human umbilical vein endothelial cells); assay: VEGF Stimulated Ca++ Signal In vitro (FLIPR); type: cell-based; conditions: VEGF stimulation 5 ng/mL, 30 min pre-incubation
Experimental: Automated FLIPR (Fluorometric Imaging Plate Reader) technology was used to screen for inhibitors of VEGF induced increases in intracellular calcium levels in fluorescent dye loaded endothelial cells. HUVEC (human umbilical vein endothelial cells) (Clonetics) were seeded in 96-well fibronectin coated black-walled plates overnight at 37° C./5%CO2. Cells were loaded with calcium indicator Fluo-4 for 45 minutes at 37° C. Cells were washed 4 times (Original Cell Wash, Labsystems) to remove extracellular dye. Test compounds were reconstituted in 100% DMSO and added to the cells to give a final DMSO concentration of 0.1%. For screening, cells were pre-incubated with test agents for 30 minutes, at a single concentration (10 μM) or at concentrations ranging from 0.01 to 10.0 μM followed by VEGF stimulation (5 ng/mL). Changes in fluorescence at 516 nm were measured simultaneously in all 96 wells using a cooled CCD camera. Data were generated by determining max-min fluorescence levels for unstimulated, stimulated, and drug treated samples. IC50 values for test compounds were calculated from % inhibition of VEGF stimulated responses in the absence of inhibitor.

[2] = biological target: T1, human VEGF receptor (VEGFR-2) (Homo sapiens, UniProt P35968); assay: VEGFR2 Kinase Assay; type: biochemical; conditions: 3.6 μM ATP, poly-Glu-Tyr (4:1)
T1 construct: The cytoplasmic domain of the human VEGF receptor (VEGFR-2) was expressed; His (histidine tag); made in house; host or cells: insect cells (engineered baculovirus)
T1 sequence (P35968 786-1356 limits assumed): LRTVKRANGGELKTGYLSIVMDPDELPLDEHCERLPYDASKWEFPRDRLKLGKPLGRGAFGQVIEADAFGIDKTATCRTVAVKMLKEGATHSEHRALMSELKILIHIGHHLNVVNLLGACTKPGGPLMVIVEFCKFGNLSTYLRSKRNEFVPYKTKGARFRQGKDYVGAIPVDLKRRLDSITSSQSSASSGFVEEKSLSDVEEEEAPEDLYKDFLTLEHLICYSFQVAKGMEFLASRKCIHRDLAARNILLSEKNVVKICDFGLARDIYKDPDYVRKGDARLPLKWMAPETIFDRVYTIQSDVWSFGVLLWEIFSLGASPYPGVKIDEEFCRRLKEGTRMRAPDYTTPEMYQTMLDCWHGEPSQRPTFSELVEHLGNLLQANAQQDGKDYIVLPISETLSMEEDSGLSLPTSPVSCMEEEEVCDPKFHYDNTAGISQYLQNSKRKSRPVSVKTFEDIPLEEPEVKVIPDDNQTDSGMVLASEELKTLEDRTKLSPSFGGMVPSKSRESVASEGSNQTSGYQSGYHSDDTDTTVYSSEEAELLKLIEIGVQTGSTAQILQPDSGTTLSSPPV
Experimental: The cytoplasmic domain of the human VEGF receptor (VEGFR-2) was expressed as a Hisfidine-tagged fusion protein following infection of insect cells using an engineered baculovirus. His-VEGFR-2 was purified to homogeneity, as determined by SDS-PAGE, using nickel resin chromatography. Kinase assays were performed in 96 well microtiter plates that were coated overnight with 30 μg of poly-Glu-Tyr (4:1) in 10 mM Phosphate Buffered Saline (PBS), pH 7.2-7.4. The plates were incubated with 1% BSA and then washed four times with PBS prior to starting the reaction. Reactions were carried out in 120 μL reaction volumes containing 3.6 μM ATP in kinase buffer (50 mM Hepes buffer pH 7.4, 20 mM MgCl2, 0.1 mM MnCl2 and 0.2 mM Na3VO4). Test compounds were reconstituted in 100% DMSO and added to the reaction to give a final DMSO concentration of 5%. Reactions were initiated by the addition 0.5 ng of purified protein. Following a ten minute incubation at 25° C., the reactions were washed four times with PBS containing 0.05% Tween-20. 100 μl of a monoclonal anti-phosphotyrosine antibody-peroxidase conjugate was diluted 1:10000 in PBS-Tween-20 and added to the wells for 30 minutes. Following four washes with PBS-Tween-20, 100 μl of O-phenylenediamine Dihydrochloride in Phosphate-citrate buffer, containing urea hydrogen peroxide, was added to the wells for 7 minutes as a colorimetric substrate for the peroxidase. The reaction was terminated by the addition of 100 μl of 2.5N H2SO4 to each well and read using a microplate ELISA reader set at 492 nm. IC50 values for compound inhibition were calculated directly from graphs of optical density (arbitrary units) versus compound concentration following subtraction of blank values.

[3] = system: VEGF-induced EBD extravasation; assay: VEGF-induced Dermal Extravasation in Guinea Pig (Miles Assay); type: in vivo; conditions: vehicle corn oil; for % Inhibition @ Dose (mg/Kg): 75 mg/Kg single oral dose
Experimental: Male Hartley guinea pigs (300-600 g) were anesthetized with isofluorane, sheared, and given a single dose of drug or the respective vehicle. The guinea pigs were dosed orally unless indicated otherwise in Table 3. Ten minutes prior to the end of drug treatment, guinea pigs were anesthetized with isofluorane, and 0.5% Evans blue dye (EBD) in PBS (13-15 mg/kg dose of EBD) was injected intravenously. After 5 minutes, triplicate intradermal injections of 100 ng rhVEGF165 in 100 μl PBS and of 100 μl PBS alone were administered on the flank. After 20 minutes, each animal was euthanized with Pentosol, and the skin containing the intradermal injection sites was removed for image analysis.
Using an analog video camera coupled to a PC, an image of each trans-illuminated skin sample was captured, and the integrated optical density of each injection site was measured using ImagePro 4. For each skin sample, the difference between the mean optical density of the VEGF sites and mean optical density of the PBS sites is the measure of VEGF-induced EBD extravasation in that animal. These measured values were averaged per study group to determine the mean VEGF-induced EBD extravasation for each experimental condition, and the group means were then compared to assess inhibition of VEGF-induced EBD extravasation in the drug-treated groups relative to the vehicle-treated controls.
(§1) To determine the dose required for 50% inhibition (ID50), the percent inhibition data was plotted as a function of oral dose, using the ‘best-fit’ analysis within MicroSoft Excel software. The ID50 value was verified visually by using the plotted data (horizontal line from 50% y value, at intersection with best-fit line drop vertical line to x axis (dose).

[4] = system: laser-induced choroidal neovascularization; assay: Laser-induced Choroidal Neovascularization (CNV) in Rat (CNV Assay); type: in vivo; conditions: vehicle corn oil
Experimental: CNV was induced and quantified in this model as previously described (Edelman and Castro. Exp. Eye Res. 2000; 71:523-533). On day 0, male Brown Norway rats (200-300 g) were anesthetized with 100 mg/kg Ketamine and 10 mg/kg Xylazine, and pupils were dilated with 1% Tropicamide. Using the blue-green setting of a Coherent Novus Argon Laser, 3 laser bums (90 mW for 0.1 s; 100 μm diameter) were given to each eye between the retinal vessels around the optic nerve head. Rats were dosed with test compounds in their indicated vehicles orally once daily.
On day 10, rats were sacrificed with 100% CO2, and blood vessels were labeled by vascular perfusion with 10 mg/ml FITC-dextran (MW 2×10^6). Using an epifluorescence microscope (20×) coupled to a spot digital camera and a PC, images were obtained from the flat mounts of the RPE-choroid-sclera from each eye, and the area occupied by hyperfluorescent neovessels within each laser lesion was measured using ImagePro 4 software.
as §1

physchem = type: physicochemical; conditions: buffer
Experimental: The chemical stability of Example 12 of the invention has been studied using buffers at pH 1, pH 3 and pH 7. Example 12 prepared in acetonitrile at 200 μg/mL and diluted to 20 μg/mL in buffers at pH 1, pH 3 and pH 7.

| SMILES | IC50 [1] [µM] | IC50 [2] [µM] | % Inhibition @ Dose (mg/Kg) [3] [% @ 75 mg/Kg] | also measured |
| --- | --- | --- | --- | --- |
| O=C1Nc2ccccc2C1=C1OCc2ccccc21 [Example 14, 3-(3H-isobenzofuran-1-ylidene)-1,3-dihydro-indol-2-one] | 0.11 |  |  |  |
| O=C1C(=CNc2ccc(N3CCOCC3)cc2)c2ccccc2N1CN1CCOCC1 [Example 13, 1-Morpholin-4-ylmethyl-3-[(4-morpholin-4-yl-phenylamino)-methylene]-1,3-dihydro-indol-2-one] | 0.722 | 3.86 | 35 |  |
| CN(C)c1ccc2c(c1)COC2=C1C(=O)Nc2ccc(Cl)cc21 [Example 20, 5-Chloro-3-(5-dimethylamino-3H-isobenzofuran-1-ylidene)-1,3-dihydro-indol-2-one] | 0.033 | 0.022 |  |  |
| CN(C)c1ccc2c(c1)COC2=C1C(=O)N(CN2CCCCC2)c2ccccc21 [Example 19, 3-(5-Dimethylamino-3H-isobenzofuran-1-ylidene)-1-piperidin-1-ylmethyl-1,3-dihydro-indol-2-one] | 0.12 | 0.133 |  |  |
| CN(C)c1ccc2c(c1)COC2=C1C(=O)Nc2ccccc21 [Example 18, 3-(5-Dimethylamino-3H-isobenzofuran-1-ylidene)-1,3-dihydro-indol-2-one] | 0.022 | 0.031 |  |  |
| O=C1Nc2ccccc2C1=CNc1ccc(N2CCOCC2)cc1 [Example 11, 3-[(4-morpholinophenylamino)-methylene]-1,3-dihydro-indol-2-one] | 0.294 | 0.26 | 40 |  |
| O=C1C(=CNc2ccc(N3CCOCC3)cc2)c2ccccc2N1CN1CCCCC1 [Example 12, 3-[(4-Morpholin-4-yl-phenylamino)-methylene]-1-piperidin-1-ylmethyl-1,3-dihydro-indol-2-one] | 0.432 | 0.478 | 88 | % Inhibition @ Dose (mg/Kg) ([4]; 80 mg/Kg (sid) oral once daily, day 10): 94% @ 80 mg/Kg (sid); ID50 ([4]; oral once daily): 36 mg/kg; ID50 ([3]; oral): 36 mg/kg; half-life at 20 μg/mL (physchem; pH 1): ~38 h; half-life at 20 μg/mL (physchem; pH 3): ~20 h; half-life at 20 μg/mL (physchem; pH 7.4): < 0.5 h |
